Data from patent US6350913B1, “3-alkoxybenzylamine derivatives and their use as medicines for treating schizophrenia” (Pierre Fabre Medicament, priority 1998, dated 2002).
Structures can show the parent of a compound that is named as a salt.

How the values were obtained:
[1] = Cataleptogenic power (propensity to induce extrapyramidal side effects); settings: rat, in vivo, ip; rats, i.p. administration; read-out: Catalepsy ED50
[2] = target: D2 receptors (Homo sapiens, UniProt P14416); test: Affinity for D2-type receptors by displacement of (3H) YM-09151-2; assay type: binding; settings: mean of at least 3 experiments, read-out: D2 pKi (converted)
D2 receptors, sequence (P14416 whole entry): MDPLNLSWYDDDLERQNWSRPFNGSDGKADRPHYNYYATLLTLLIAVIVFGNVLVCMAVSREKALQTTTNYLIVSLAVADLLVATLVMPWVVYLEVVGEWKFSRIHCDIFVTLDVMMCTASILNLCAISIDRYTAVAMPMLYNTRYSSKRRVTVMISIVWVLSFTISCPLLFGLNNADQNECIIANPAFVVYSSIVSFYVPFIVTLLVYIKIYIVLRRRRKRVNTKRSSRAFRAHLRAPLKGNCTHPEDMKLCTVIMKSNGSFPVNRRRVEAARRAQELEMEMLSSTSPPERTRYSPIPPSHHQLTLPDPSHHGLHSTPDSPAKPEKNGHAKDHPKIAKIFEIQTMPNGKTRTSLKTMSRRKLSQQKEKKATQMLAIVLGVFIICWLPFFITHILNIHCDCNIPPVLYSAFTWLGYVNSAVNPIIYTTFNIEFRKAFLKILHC
Method: 1- Measurement of the affinity of the compounds of the invention for the D2 receptors. The affinity of the compounds of the invention for the D2-type receptors was determined by measuring the displacement of (^3H) YM-09151-2 (NET-1004 70-87 Ci/mmol), according to the method described in Naunyn-Schimiedeberg's Arch. Pharmacol. Methods, 1985, 329, 333. The pKi values (-log Ki) are given in the form of a mean±SEM of at least 3 experiments.

[3] = test system: behavioral patterns induced by methylphenidate; test: Inhibition of behavioral patterns induced by methylphenidate (in vivo antidopaminergic activity); settings: Rattus norvegicus, ip, read-out: Normalization ED50

| Compound | ED50 [1] [mg/kg] | Ki [2] [nM] | ED50 [3] [mg/kg] | melting point [°C] |
| --- | --- | --- | --- | --- |
| CC(C)Oc1ccccc1OCCNCc1cccc(OC2CC3C=CC2C3)c1 (stereo not drawn) [Compound 1.4] | > 40 | 2.75 | 5 | – |
| CC(C)Oc1ccccc1OCCNCc1cc(OC2CCCC2)ccc1F (as salt: oxalate) [Compound 1.12] | – | – | – | 159 |
| Cc1nc2n(c(=O)c1CCN1CCC(c3noc4cc(F)ccc34)CC1)CCCC2 [Risperidone, reference compound] | – | – | 2.9 | – |
| CC(C)Oc1ccccc1OCCNCc1cccc(OC2CC3C=CC2C3)c1 (stereo not drawn) (as salt: oxalate) [Compound 1.4] | – | – | – | 177 |
| CC(C)Oc1ccccc1OCCNCc1cc(OC2CCCC2)ccc1F [Compound 1.12] | > 40 | 0.741 | 1.25 | – |
